Data reported in BigSolDB 2.1.

O=C1NC(=O)c2cc([N+](=O)[O-])ccc21
Details	solubility (mole fraction)
in 1,4-dioxane, 283.15 K	0.0228
in 1,4-dioxane, 285.65 K	0.0238
in 1,4-dioxane, 288.15 K	0.0249
in 1,4-dioxane, 293.15 K	0.0271
in 1,4-dioxane, 295.65 K	0.0282
in 1,4-dioxane, 298.15 K	0.0295
in 1,4-dioxane, 303.15 K	0.0318
in 1,4-dioxane, 305.65 K	0.0331
in 1,4-dioxane, 308.15 K	0.0345
in 1,4-dioxane, 313.15 K	0.0371
in 1,4-dioxane, 315.65 K	0.0384
in 1,4-dioxane, 318.15 K	0.0399
in 1,4-dioxane, 323.15 K	0.0425
in 2-butanone, 273.15 K	0.0161
in 2-butanone, 275.65 K	0.0169
in 2-butanone, 278.15 K	0.0177
in 2-butanone, 283.15 K	0.0195
in 2-butanone, 285.65 K	0.0205
in 2-butanone, 288.15 K	0.0215
in 2-butanone, 293.15 K	0.0234
in 2-butanone, 295.65 K	0.0244
in 2-butanone, 298.15 K	0.0256
in 2-butanone, 303.15 K	0.0279
in 2-butanone, 305.65 K	0.029
in 2-butanone, 308.15 K	0.0302
in 2-butanone, 313.15 K	0.0327
in 2-butanone, 315.65 K	0.0339
in 2-butanone, 318.15 K	0.0353
in 2-butanone, 323.15 K	0.038
in DMF, 273.15 K	0.0357
in DMF, 275.65 K	0.039
in DMF, 278.15 K	0.0425
in DMF, 283.15 K	0.0497
in DMF, 285.65 K	0.0535
in DMF, 288.15 K	0.0586
in DMF, 293.15 K	0.0682
in DMF, 295.65 K	0.0732
in DMF, 298.15 K	0.0789
in DMF, 303.15 K	0.0912
in DMF, 305.65 K	0.0976
in DMF, 308.15 K	0.104
in DMF, 313.15 K	0.12
in DMF, 315.65 K	0.128
in DMF, 318.15 K	0.137
in DMF, 323.15 K	0.155
in acetone, 273.15 K	0.0175
in acetone, 275.65 K	0.0185
in acetone, 278.15 K	0.0193
in acetone, 283.15 K	0.0211
in acetone, 285.65 K	0.022
in acetone, 288.15 K	0.023
in acetone, 293.15 K	0.025
in acetone, 295.65 K	0.0261
in acetone, 298.15 K	0.0271
in acetone, 303.15 K	0.0293
in acetone, 305.65 K	0.0305
in acetone, 308.15 K	0.0317
in acetone, 313.15 K	0.034
in acetone, 315.65 K	0.0353
in acetone, 318.15 K	0.0366
in acetone, 323.15 K	0.0392
in acetonitrile, 273.15 K	0.00359
in acetonitrile, 275.65 K	0.00382
in acetonitrile, 278.15 K	0.00403
in acetonitrile, 283.15 K	0.00449
in acetonitrile, 285.65 K	0.00474
in acetonitrile, 288.15 K	0.00503
in acetonitrile, 293.15 K	0.00555
in acetonitrile, 295.65 K	0.00584
in acetonitrile, 298.15 K	0.00618
in acetonitrile, 303.15 K	0.00679
in acetonitrile, 305.65 K	0.00709
in acetonitrile, 308.15 K	0.00749
in acetonitrile, 313.15 K	0.00822
in acetonitrile, 315.65 K	0.00858
in acetonitrile, 318.15 K	0.00894
in acetonitrile, 323.15 K	0.00976
in benzyl alcohol, 273.15 K	0.0134
in benzyl alcohol, 275.65 K	0.0143
in benzyl alcohol, 278.15 K	0.0154
in benzyl alcohol, 283.15 K	0.0175
in benzyl alcohol, 285.65 K	0.0188
in benzyl alcohol, 288.15 K	0.0202
in benzyl alcohol, 293.15 K	0.023
in benzyl alcohol, 295.65 K	0.0245
in benzyl alcohol, 298.15 K	0.0261
in benzyl alcohol, 303.15 K	0.0294
in benzyl alcohol, 305.65 K	0.0312
in benzyl alcohol, 308.15 K	0.0331
in benzyl alcohol, 313.15 K	0.0372
in benzyl alcohol, 315.65 K	0.0393
in benzyl alcohol, 318.15 K	0.0417
in benzyl alcohol, 323.15 K	0.0466
in chloroform, 273.15 K	0.000535
in chloroform, 275.65 K	0.000577
in chloroform, 278.15 K	0.000625
in chloroform, 283.15 K	0.000722
in chloroform, 285.65 K	0.000775
in chloroform, 288.15 K	0.000837
in chloroform, 293.15 K	0.000959
in chloroform, 295.65 K	0.00102
in chloroform, 298.15 K	0.00109
in chloroform, 303.15 K	0.00124
in chloroform, 305.65 K	0.00131
in chloroform, 308.15 K	0.0014
in chloroform, 313.15 K	0.0016
in chloroform, 315.65 K	0.00169
in chloroform, 318.15 K	0.00178
in chloroform, 323.15 K	0.00201
in cyclohexanone, 273.15 K	0.0295
in cyclohexanone, 275.65 K	0.0307
in cyclohexanone, 278.15 K	0.0321
in cyclohexanone, 283.15 K	0.0352
in cyclohexanone, 285.65 K	0.0367
in cyclohexanone, 288.15 K	0.0387
in cyclohexanone, 293.15 K	0.0422
in cyclohexanone, 295.65 K	0.044
in cyclohexanone, 298.15 K	0.0461
in cyclohexanone, 303.15 K	0.0506
in cyclohexanone, 305.65 K	0.0527
in cyclohexanone, 308.15 K	0.0552
in cyclohexanone, 313.15 K	0.0604
in cyclohexanone, 315.65 K	0.0629
in cyclohexanone, 318.15 K	0.0655
in cyclohexanone, 323.15 K	0.0708
in ethanol, 273.15 K	0.000713
in ethanol, 275.65 K	0.000799
in ethanol, 278.15 K	0.000897
in ethanol, 283.15 K	0.00112
in ethanol, 285.65 K	0.00123
in ethanol, 288.15 K	0.00137
in ethanol, 293.15 K	0.00166
in ethanol, 295.65 K	0.00183
in ethanol, 298.15 K	0.00201
in ethanol, 303.15 K	0.00244
in ethanol, 305.65 K	0.00265
in ethanol, 308.15 K	0.00288
in ethanol, 313.15 K	0.00347
in ethanol, 315.65 K	0.00378
in ethanol, 318.15 K	0.00405
in ethanol, 323.15 K	0.00479
in ethyl acetate, 273.15 K	0.00919
in ethyl acetate, 275.65 K	0.00981
in ethyl acetate, 278.15 K	0.0104
in ethyl acetate, 283.15 K	0.0117
in ethyl acetate, 285.65 K	0.0123
in ethyl acetate, 288.15 K	0.0131
in ethyl acetate, 293.15 K	0.0146
in ethyl acetate, 295.65 K	0.0155
in ethyl acetate, 298.15 K	0.0163
in ethyl acetate, 303.15 K	0.0181
in ethyl acetate, 305.65 K	0.019
in ethyl acetate, 308.15 K	0.02
in ethyl acetate, 313.15 K	0.022
in ethyl acetate, 315.65 K	0.0231
in ethyl acetate, 318.15 K	0.0243
in ethyl acetate, 323.15 K	0.0266
in isopropanol, 273.15 K	0.000586
in isopropanol, 275.65 K	0.000643
in isopropanol, 278.15 K	0.000741
in isopropanol, 283.15 K	0.000937
in isopropanol, 285.65 K	0.00104
in isopropanol, 288.15 K	0.00115
in isopropanol, 293.15 K	0.00143
in isopropanol, 295.65 K	0.00159
in isopropanol, 298.15 K	0.00175
in isopropanol, 303.15 K	0.00214
in isopropanol, 305.65 K	0.00234
in isopropanol, 308.15 K	0.00257
in isopropanol, 313.15 K	0.00311
in isopropanol, 315.65 K	0.0034
in isopropanol, 318.15 K	0.0037
in isopropanol, 323.15 K	0.00443
in methanol, 273.15 K	0.0014
in methanol, 275.65 K	0.00151
in methanol, 278.15 K	0.00167
in methanol, 283.15 K	0.00196
in methanol, 285.65 K	0.00212
in methanol, 288.15 K	0.00233
in methanol, 293.15 K	0.00272
in methanol, 295.65 K	0.00295
in methanol, 298.15 K	0.00318
in methanol, 303.15 K	0.00372
in methanol, 305.65 K	0.00397
in methanol, 308.15 K	0.00427
in methanol, 313.15 K	0.00493
in methanol, 315.65 K	0.00527
in methanol, 318.15 K	0.00566
in methanol, 323.15 K	0.00646
